Measured values: patent publication US20120107428A1, “REPELLENTS FOR PESTIFEROUS SOCIAL WASPS” (Sterling International Inc., priority 2010, published 2012)

Tests used:
Type in all cases: in vivo
[1] = tested on: Yellowjackets (mainly Vespula pensylvanica (ca. 90%), plus V. vulgaris, V. germanica, and Dolichovespula maculata); assay: Field trapping, Rescue W•H•Y traps baited with attractant heptyl butyrate: captures of yellowjackets; details: Table 5, Experiment 5; treatment alone (essential oil mix alone, or attractant HB alone); 13 days in September; N 18
Method: (§1) Eleven field trapping experiments were carried out from late August to mid-October 2009 in residential and woody areas around Spokane, Wash., USA, mostly using the trap known by the designation Rescue® W•H•Y (except on one occasion that Rescue® Reusable Yellowjacket Traps were used for a natural food attractant; see below for details). The commercial W•H•Y trap has a top chamber and a bottom chamber and is described in U.S. Patent Application Publication No. 2009/0151228. The top chamber is baited with two attractants—one of which is a solid contained in a vial (2-methyl-1-butanol), and the other is a liquid mixed with water (acetic acid). The bottom chamber is baited with a liquid attractant (heptyl butyrate) poured onto a cotton pad. Separation of the two types of attractants (otherwise antagonistic to each other when released from the same chamber) in two chambers creates two focal attraction sources from one trap for different species of wasps, hornets, and yellowjackets. In order to test potential repellency of essential oils or EAD-active synthetic candidate compounds on different types of attractants, W•H•Y traps were baited with either a top attractant or a bottom attractant depending on the experiments. […]

[2] = tested on: Paper wasps (mainly Polistes dominulus, plus a few of P. aurifer); assay: Field trapping, Rescue W•H•Y traps baited with attractant heptyl butyrate: captures of paper wasps
Method: as §1

[3] = tested on: yellowjackets (mainly Vespula pensylvanica); assay: Field observation of landing and approaching of yellowjackets at heptyl butyrate attractant source (experiment 7); details: Experiment 7, FIG. 1, attractant alone, 15 minutes observation replicates
Method: In addition, the repellency of the essential oil mixture (3EO-mix; at 0 cm and 50 cm above the heptyl butyrate attractant) on the landing behavior of yellowjackets was field observed (as experiment 7) on a September day for roughly 1.5 hours in Spokane, Wash. This observation test was conducted in the sun by setting up in a line east to west four portable light gray folding tables (45.7×66.0×67.3 cm) in a level area of grass near a vineyard. These tables were placed approximately 3 m apart. Chairs were set up approximately 4 m away from the tables for the scientists conducting the observations. On each table a black lab support stand was used with a movable metal bar in the horizontal direction clamped to the support stand for placing a repellent PE-bag dispenser (2 ml of 3EO-mix) or blank PE-bag at either 0 cm or 50 cm above the attractant, heptyl butyrate. A white towel was used to cover the black base of the support stand to provide a uniform color. A circle felt pad (3.5 cm diameter) loaded with 3 ml of heptyl butyrate as attractant or left blank for a negative control in a Petri dish (9 cm diameter) was placed on the base of the stand. […]
Trap catch data (number of wasps/trap/visit) and landing/approaching numbers were transformed by log (X+1) and the transformed means were analyzed by ANOVA, followed by the Duncan's multiple-range test (SPSS 16.0 for Windows) at α=0.05.

SMILES: CCCCCCCOC(=O)CCC [HB, heptyl butyrate]
- Mean/trap/visit ± SE Yellowjackets [1]: 39.7 ± 13.6 b wasps/trap/visit
- attraction of paper wasps to heptyl butyrate ([2]; Experiment 5): not attracted
- Mean/trap/visit ± SE Paper wasps ([2]; Table 5, Experiment 5, treatment alone (essential oil mix alone, or attractant HB alone), 13 days in September, N 18): 1.3 ± 0.6 a wasps/trap/visit
- average number of yellowjackets landing [3]: 5
- average number of yellowjackets approaching ([3]; within 0.5 m): 12
